Where a SMILES comes first, the peptide text is derived from it. [ ]: non-standard residue; d: D form. The star is where a group is joined. ξ: configuration not given here. FITC = O=C1OC2(c3ccc(O)cc3Oc3cc(O)ccc32)c2ccc(NC(=S)*)cc21; Phe(4-NO2) = N[C@@H](Cc1ccc([N+](=O)[O-])cc1)C(=O)O; ξAla(4-thiazolyl) = NC(Cc1cscn1)C(=O)O; pS = N[C@@H](COP(=O)(O)O)C(=O)O; β3hS = N[C@@H](CO)CC(=O)O; βAla = NCCC(=O)O
Biological target: T1, 14-3-3γ/ChREBP (Homo sapiens, UniProt P61981+Q9NP71)
T1 construct: made in house; host or cells: E. coli NiCo21 (DE3) for 14-3-3 gamma; ChREBP is a synthetic peptide
T1 sequence (P61981 1-247): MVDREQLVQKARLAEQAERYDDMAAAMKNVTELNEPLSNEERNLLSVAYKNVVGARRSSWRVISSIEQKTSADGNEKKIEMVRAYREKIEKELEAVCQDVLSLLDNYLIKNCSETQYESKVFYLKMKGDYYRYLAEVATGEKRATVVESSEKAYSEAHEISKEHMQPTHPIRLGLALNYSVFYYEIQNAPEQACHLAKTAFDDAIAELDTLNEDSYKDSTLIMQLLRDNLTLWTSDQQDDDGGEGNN
T1 sequence (Q9NP71 118-142 partner limits assumed): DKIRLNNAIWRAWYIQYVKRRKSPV
Assay: FA ChREBP titration to FITC-labelled peptide with or without 14-3-3 (ternary complex formation)
Format: binding
Conditions: for ternary complex formation (anisotropy) on ChREBP titration in presence of 14-3-3γ: ChREBP titrated to preformed complex of 14-3-3γ and FITC-labelled peptide, Fig. 5d
Description: performed twice per cycle with 20% v/v piperidine in N,N-dimethylformamide (DMF) for five minutes.
Fmoc-protected amino acids were mixed with 9 equivalents HBTU (0.38 M in DMF) and 15 equivalents of DIPEA, and coupled to the resin for 30 minutes (except pS, which is coupled for 60 minutes).
Peptides 1 and 2e-i were labeled with fluorescein via a 5-(-fluorenylmehyloxycarbonyl-amino)-3-oxapentanoic acid (O1-Pen) linker using 5 equivalents of FITC and 7.5 equivalents of DIPEA reacting overnight with continuous agitation. Removal of protecting groups and cleavage of the resin was performed by incubation in a mixture of trifluoroacetic acid (TFA), H2O, and triisopropylsilane (TIS) (96.5:2.5:1) for 2 hours with continuous agitation, followed by precipitation in an excess of ice-cold […]
Peptides 1 and 2a-d were FITC labeled via a three-step approach. The free amine on the N-terminus was protected as follows: to a solution of di-tert-butyl decarbonate (10 eq, 400 mM) in DCM was added DIEA (10 eq), and solution was added to the resin. Coupling was allowed to proceed for 1 h. At this time, resin was washed 3x with DCM and coupling was repeated as described. […]
All peptides were purified using preparative HP-LC. […] The purity of the samples was assessed using a UV detector at 254 […]
Fluorescence anisotropy (FA) - binary binding studies: 14-3-3γ was titrated in a 2-fold dilution series (starting at 100 or 400 µM 14-3-3γ) to 10 nM of fluorescein-labeled peptide in FA buffer (10 mM HEPES pH 7.4, 150 mM NaCl, 0.1% (v/v) Tween20, 0.1% (w/v) BSA). […]
Measurements were performed directly after plate preparation, using a Tecan Infinite F500 plate reader at room temperature (lex: 485 ± 20 nm; lem: 535 ± 25 nm; mirror: Dichroic 510; flashes: 20; integration time: 50 ms; settle time: 0 ms; gain: optimal; and Z-position: calculated from well). […] All data were analyzed using GraphPad Prism (7.00) for Windows and fitted using a four-parameter logistic model (4PL). Each measurement was performed in three independent experiments, average and standard deviations were calculated in Excel […]

SMILES | ternary complex formation (anisotropy) on ChREBP titration in presence of 14-3-3γ | increase in anisotropy on ChREBP titration to FITC-labelled peptide alone (no 14-3-3 present, Fig. 5e)
C[C@H](NC(=O)[C@H](CCCCN)NC(=O)[C@H](Cc1ccc([N+](=O)[O-])cc1)NC(=O)CCNC(=O)C[C@H](CO)NC(=O)[C@H](Cc1ccc([N+](=O)[O-])cc1)NC(=O)[C@H](COP(=O)(O)O)NC(=O)C(N)Cc1cscn1)C(=O)N[C@@H](CCCCNC(=S)Nc1ccc2c(c1)C(=O)OC21c2ccc(O)cc2Oc2cc(O)ccc21)C(N)=O (stereo partly drawn) [2c] (H-[ξAla(4-thiazolyl)][pS][Phe(4-NO2)][β3hS][βAla][Phe(4-NO2)]KAK(FITC)-NH2) | lack of increase in anisotropy values | –
C[C@H](NC(=O)[C@H](CCCCN)NC(=O)[C@H](Cc1ccc([N+](=O)[O-])cc1)NC(=O)CCNC(=O)C[C@H](CO)NC(=O)[C@H](Cc1ccc([N+](=O)[O-])cc1)NC(=O)[C@@H](N)COP(=O)(O)O)C(=O)N[C@@H](CCCCNC(=S)Nc1ccc2c(c1)C(=O)OC21c2ccc(O)cc2Oc2cc(O)ccc21)C(N)=O [2d] (H-[pS][Phe(4-NO2)][β3hS][βAla][Phe(4-NO2)]KAK(FITC)-NH2) | dose-dependent increase in 14-3-3/ChREBP/2d complex formation | not observed

Source: article PMC9667936, “Functional mapping of the 14-3-3 hub protein as a guide to design 14-3-3 molecular glues” (Chemical Science, 2022)
